In one assay the target is CK1δ (Homo sapiens (Human), UniProt P48730). Kind of assay: CK1δ kinase assay (Caliper LABCHIP electrophoretic separation of fluoresceinated peptide substrate and product). Format: biochemical. Conditions: 200 pM enzyme, 50 μM ATP, 22 hours at room temperature. A digest of the protocol:
(§1)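 Incubated for twenty-two hours at ambient temperature, then quenched with EDTA and analyzed by electrophoretic separation of unphosphorylated and phosphorylated peptide.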

The next assay addresses CK1ε (Homo sapiens (Human), UniProt P49674). In words: CK1ε kinase assay (Caliper LABCHIP electrophoretic separation of fluoresceinated peptide substrate and product). Format: biochemical. Conditions: 200 pM enzyme, 50 μM ATP, 22 hours at room temperature. A digest of the protocol: as §1

CK1ε, sequence (P49674 whole entry): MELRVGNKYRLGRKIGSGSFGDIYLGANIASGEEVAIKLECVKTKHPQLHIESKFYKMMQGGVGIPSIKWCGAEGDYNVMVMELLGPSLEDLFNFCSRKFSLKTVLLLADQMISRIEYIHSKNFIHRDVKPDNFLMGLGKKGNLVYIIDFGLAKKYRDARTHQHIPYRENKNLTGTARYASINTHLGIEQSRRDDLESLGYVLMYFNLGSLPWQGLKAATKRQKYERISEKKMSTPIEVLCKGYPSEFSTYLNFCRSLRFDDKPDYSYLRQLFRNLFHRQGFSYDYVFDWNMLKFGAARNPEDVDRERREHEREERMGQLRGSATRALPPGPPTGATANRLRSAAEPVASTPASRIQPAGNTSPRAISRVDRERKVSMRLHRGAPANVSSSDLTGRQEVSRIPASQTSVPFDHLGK
CK1δ, sequence (P48730 whole entry): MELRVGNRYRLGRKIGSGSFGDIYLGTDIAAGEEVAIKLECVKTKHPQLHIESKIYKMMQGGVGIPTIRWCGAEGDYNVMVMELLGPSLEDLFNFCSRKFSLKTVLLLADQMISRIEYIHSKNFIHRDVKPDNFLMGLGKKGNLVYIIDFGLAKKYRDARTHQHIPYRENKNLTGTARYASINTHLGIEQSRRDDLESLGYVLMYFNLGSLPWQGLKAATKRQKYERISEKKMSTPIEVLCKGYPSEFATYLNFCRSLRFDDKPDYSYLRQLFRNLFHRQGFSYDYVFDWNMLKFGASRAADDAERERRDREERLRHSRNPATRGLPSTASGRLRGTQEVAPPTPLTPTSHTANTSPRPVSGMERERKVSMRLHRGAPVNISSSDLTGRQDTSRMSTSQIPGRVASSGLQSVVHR

For orientation: IC50 means the midpoint of a concentration-inhibition curve. For `Cc1nc(-c2cccnc2)sc1C(=O)Nc1cn2nc(-c3c(-c4ccc(F)cc4)ncn3C3CCN(CC(N)=O)CC3)ccc2n1` [Compound 100, N-(6-(1-(1-(2-amino-2-oxoethyl)piperidin-4-yl)-4-(4-fluorophenyl)-1H-imidazol-5-yl)imidazo[1,2-b]pyridazin-2-yl)-4-methyl-2-(pyridin-3-yl) thiazole-5-carboxamide], the IC50 was found to be 0.091 nM against CK1δ and 0.128 nM against CK1ε.
On the same counts, the results for `Cc1nc(-c2ccc(F)cc2)c(-c2ccc3nc(NC(=O)c4cc[nH]c4)cn3n2)n1C` [Compound 348, N-(6-(4-(4-fluorophenyl)-1,2-dimethyl-1H-imidazol-5-yl)imidazo[1,2-b]pyridazin-2-yl)-1H-pyrrole-3-carboxamide] are 1.62 nM and 5.77 nM.
For the molecule `Cc1nc(-c2ccc(F)cc2)c(-c2ccc3nc(NC(=O)N(C)c4ccccc4)cn3n2)n1C` [Compound 407, 3-(6-(4-(4-Fluorophenyl)-1,2-dimethyl-1H-imidazol-5-yl)imidazo[1,2-b]pyridazin-2-yl)-1-methyl-1-phenylurea], the IC50 came out at 34.9 nM on CK1δ and 59.8 nM against CK1ε.
On the same counts, the results for `O=C(Nc1cn2nc(-c3c(-c4ccc(F)cc4)ncn3C3CCN(Cc4ccncc4)CC3)ccc2n1)c1ccnc(F)c1` [Compound 16, 2-fluoro-N-(6-(4-(4-fluorophenyl)-1-(1-(pyridin-4-ylmethyl)piperidin-4-yl)-1H-imidazol-5-yl)imidazo[1,2-b]pyridazin-2-yl)isonicotinamide] are 0.295 nM and 3.06 nM.
Regarding `Cc1nc(-c2ccc(F)cc2)c(-c2ccc3nc(NC(=O)c4ccnc(F)c4)cn3n2)n1CC(F)(F)F` [Compound 289, 2-fluoro-N-(6-(4-(4-fluorophenyl)-2-methyl-1-(2,2,2-trifluoroethyl)-1H-imidazol-5-yl)imidazo[1,2-b]pyridazin-2-yl)isonicotinamide], the values for the IC50 against CK1δ and at CK1ε were 0.613 nM and 1.27 nM, respectively.
Turning to `N#CCCN1CCC(n2cnc(-c3ccc(F)cc3)c2-c2ccc3nc(NC(=O)c4ccnc(F)c4)cn3n2)CC1` [Compound 36, N-(6-(1-(1-(2-cyanoethyl)piperidin-4-yl)-4-(4-fluorophenyl)-1H-imidazol-5-yl)imidazo[1,2-b]pyridazin-2-yl)-2-fluoroisonicotinamide], the IC50 against CK1δ turned out to be 0.197 nM; at CK1ε it was 1.58 nM.
Take `NC(=O)CN1CCC(n2cnc(-c3ccc(F)cc3)c2-c2ccc3nc(NC(=O)c4cc(F)nc(F)c4)cn3n2)CC1` [Compound 89, N-(6-(1-(1-(2-amino-2-oxoethyl)piperidin-4-yl)-4-(4-fluorophenyl)-1H-imidazol-5-yl)imidazo[1,2-b]pyridazin-2-yl)-2,6-difluoroisonicotinamide]: the IC50 on CK1δ was 0.146 nM; on CK1ε it was 1.09 nM.
The corresponding values for `O=C(Nc1cn2nc(-c3c(-c4ccc(F)cc4)nc4ccccn34)ccc2n1)c1cc(F)nc(F)c1` [Compound 169, 2,6-difluoro-N-(6-(2-(4-fluorophenyl)imidazo[1,2-a]pyridin-3-yl)imidazo[1,2-b]pyridazin-2-yl)isonicotinamide] are 0.492 nM and 5.24 nM.
For `CCCn1cnc(-c2ccc(F)cc2)c1-c1ccc2nc(NC(=O)c3ccnc(F)c3)cn2n1` [Compound 229, 2-Fluoro-N-(6-(4-(4-fluorophenyl)-1-propyl-1H-imidazol-5-yl)imidazo[1,2-b]pyridazin-2-yl)isonicotinamide], the IC50 was found to be 0.474 nM on CK1δ and 2.57 nM on CK1ε.
The corresponding values for `O=C(Nc1cn2nc(-c3c(-c4ccc(F)cc4)ncn3-c3ccc(F)cc3)ccc2n1)c1cccc(-c2cccnc2)c1` [Compound 420, N-(6-(1,4-bis(4-Fluorophenyl)-1H-imidazol-5-yl)imidazo[1,2-b]pyridazin-2-yl)-3-(pyridin-3-yl)benzamide] are 3.6 nM and 18.5 nM.
The corresponding values for `COCCN1CCC(n2cnc(-c3ccc(F)cc3)c2-c2ccc3nc(NC(=O)c4ccnc(F)c4)cn3n2)CC1` [Compound 34, 2-fluoro-N-(6-(4-(4-fluorophenyl)-1-(1-(2-methoxyethyl)piperidin-4-yl)-1H-imidazol-5-yl)imidazo[1,2-b]pyridazin-2-yl)isonicotinamide] are 0.136 nM and 12.4 nM.
The corresponding values for `CC(C)(C)c1cc(Cn2cnc(-c3ccc(F)cc3)c2-c2ccc3nc(NC(=O)c4ccnc(F)c4)cn3n2)n[nH]1` [Compound 264] are 41.5 nM and 156 nM.
Consider `Cc1nc(-c2ccc(Cl)cc2)c(-c2ccc3nc(NC(=O)c4ccnc(F)c4)cn3n2)n1C` [Compound 296, N-(6-(4-(4-chlorophenyl)-1,2-dimethyl-1H-imidazol-5-yl)imidazo[1,2-b]pyridazin-2-yl)-2-fluoroisonicotinamide], for which the IC50 against CK1δ is 0.519 nM; on CK1ε, 10.2 nM.
Consider `Cc1nc(-c2ccc(F)cc2)c(-c2ccc3nc(NC(=O)c4ncccn4)cn3n2)n1C` [Compound 383, N-(6-(4-(4-fluorophenyl)-1,2-dimethyl-1H-imidazol-5-yl)imidazo[1,2-b]pyridazin-2-yl)pyrimidine-2-carboxamide], for which the half-maximal inhibitory concentration (IC50) is 6.34 nM at CK1δ and 17.3 nM at CK1ε.
For the molecule `O=C(Nc1cn2nc(-c3c(-c4ccc(F)cc4)ncn3C3CC3)ccc2n1)c1ccnc(F)c1` [Compound 426, N-(6-(1-Cyclopropyl-4-(4-fluorophenyl)-1H-imidazol-5-yl)imidazo[1,2-b]pyridazin-2-yl)-2-fluoroisonicotinamide], the IC50 is 0.9 nM at CK1δ and 10.4 nM against CK1ε.
On the same counts, the results for `Cc1nc(-c2ccc(F)cc2)c(-c2ccc3nc(NC(=O)c4cnc5ccccc5n4)cn3n2)n1C` [Compound 310, N-(6-(4-(4-fluorophenyl)-1,2-dimethyl-1H-imidazol-5-yl)imidazo[1,2-b]pyridazin-2-yl) quinoxaline-2-carboxamide] are 1.03 nM and 8.37 nM.
As for `Cc1nc(-c2ccc(F)cc2)c(-c2ccc3nc(NC(=O)c4ccnnc4)cn3n2)n1C` [Compound 391, N-(6-(4-(4-fluorophenyl)-1,2-dimethyl-1H-imidazol-5-yl)imidazo[1,2-b]pyridazin-2-yl)pyridazine-4-carboxamide], the IC50 on CK1δ is 4.45 nM; on CK1ε, 10.5 nM.
On to `O=C(Nc1cn2nc(-c3c(-c4ccc(F)cc4)nc4n3CCN(C(=O)C3CC3(F)F)C4)ccc2n1)c1ccnc(F)c1` (stereo not shown) [Compound 466, N-(6-(7-(2,2-Difluorocyclopropanecarbonyl)-2-(4-fluorophenyl)-5,6,7,8-tetrahydroimidazo[1,2-a]pyrazin-3-yl)imidazo[1,2-b]pyridazin-2-yl)-2-fluoroisonicotinamide], for which the values for the IC50 against CK1δ and on CK1ε were 0.2 nM and 1.5 nM, respectively.
On the same counts, the results for `Cc1cc(C(=O)Nc2cn3nc(-c4c(-c5ccc(F)cc5)nc(C)n4C)ccc3n2)on1` [Compound 382, N-(6-(4-(4-fluorophenyl)-1,2-dimethyl-1H-imidazol-5-yl)imidazo[1,2-b]pyridazin-2-yl)-3-methyl-5-isoxazole-carboxamide] are 21.9 nM and 103 nM.
Regarding `Cc1c[nH]c(C(=O)Nc2cn3nc(-c4c(-c5ccc(F)cc5)nc(C)n4C)ccc3n2)c1` [Compound 338, N-(6-(4-(4-fluorophenyl)-1,2-dimethyl-1H-imidazol-5-yl)imidazo[1,2-b]pyridazin-2-yl)-4-methyl-1H-pyrrole-2-carboxamide], the IC50 came to 0.368 nM against CK1δ and 0.768 nM against CK1ε.
With `O=C(Nc1cn2nc(-c3c(-c4ccc(F)cc4)ncn3C3CCN(C(=O)OC4CCCC4)CC3)ccc2n1)c1ccnc(F)c1` [Compound 77, cyclopentyl 4-(5-(2-(2-fluoroisonicotinamido)imidazo[1,2-b]pyridazin-6-yl)-4-(4-fluorophenyl)-1H-imidazol-1-yl)piperidine-1-carboxylate], the IC50 on CK1δ was determined as 0.744 nM; against CK1ε it was 14 nM.
On the same counts, the results for `O=C(Nc1cn2nc(-c3c(-c4ccc(F)cc4)ncn3CCCn3ccnc3)ccc2n1)c1ccnc(F)c1` [Compound 263, 2-fluoro-N-(6-(4-(4-fluorophenyl)-1-(3-(1H-imidazol-1-yl)propyl)-1H-imidazol-5-yl)imidazo[1,2-b]pyridazin-2-yl)isonicotinamide] are 0.436 nM and 5.4 nM.
The corresponding values for `Cc1nc(-c2ccc(F)cc2)c(-c2ccc3nc(NC(=O)c4c[nH]c5ccncc45)cn3n2)n1C` [Compound 334, N-(6-(4-(4-fluorophenyl)-1,2-dimethyl-1H-imidazol-5-yl)imidazo[1,2-b]pyridazin-2-yl)-1H-pyrrolo[3,2-c] pyridine-3-carboxamide] are 0.824 nM and 0.966 nM.
Consider `Cc1nc(-c2ccc(F)cc2)c(-c2ccc3nc(NC(=O)c4ccnc(F)c4)cn3n2)n1C1CCN(C(=O)c2ccsn2)CC1` [Compound 147, 2-fluoro-N-(6-(4-(4-fluorophenyl)-1-(1-(isothiazole-3-carbonyl)piperidin-4-yl)-2-methyl-1H-imidazol-5-yl)imidazo[1,2-b]pyridazin-2-yl)isonicotinamide], for which the IC50 on CK1δ is 0.529 nM; against CK1ε, 4.9 nM.
As for `Cn1cnc(-c2ccc(F)cc2)c1-c1ccc2nc(NC(=O)C(C)(C)C)cn2n1` [Compound 283, N-(6-(4-(4-fluorophenyl)-1-methyl-1H-imidazol-5-yl)imidazo[1,2-b]pyridazin-2-yl)pivalamide], the IC50 on CK1δ turned out to be 0.545 nM; at CK1ε, 7.62 nM.
Take `O=C(Nc1cn2nc(-c3c(-c4ccc(F)cc4)nc(C4CC4)n3C3CCN(C(=O)c4ccon4)CC3)ccc2n1)c1ccnc(F)c1` [Compound 126, N-(6-(2-cyclopropyl-4-(4-fluorophenyl)-1-(1-(isoxazole-3-carbonyl)piperidin-4-yl)-1H-imidazol-5-yl)imidazo[1,2-b]pyridazin-2-yl)-2-fluoroisonicotinamide]: the IC50 at CK1δ amounted to 1.66 nM; against CK1ε it was 9.02 nM.

Values taken from patent US9556179B2 (BRISTOL-MYERS SQUIBB COMPANY, priority 2012, dated 2017).
